Assay results reported in PubChem BioAssay (NCI).
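Method: 48-hour compound exposure of cells in 96-well plates, five concentrations, linear interpolation of endpoints. TGI: total growth inhibition.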 Where a SMILES comes first, the peptide text is derived from it. The star is where a group is joined. Cbz = O=C(OCc1ccccc1)*; Boc = CC(C)(C)OC(=O)*; OBn = c1ccc(CO*)cc1

How the values were obtained:
Assay in all cases: growth of human tumour cells (NCI), 48 h
OVCAR-4 ovarian = tested on: OVCAR-4 ovarian
786-0 renal = tested on: 786-0 renal
SR leukemia = tested on: SR leukemia
UACC-62 melanoma = tested on: UACC-62 melanoma
T-47D breast = tested on: T-47D breast
ACHN renal = tested on: ACHN renal
HL-60(TB) leukemia = tested on: HL-60(TB) leukemia
IGROV1 ovarian = tested on: IGROV1 ovarian
HOP-92 NSCLC = tested on: HOP-92 NSCLC
NCI-H522 lung = tested on: NCI-H522 lung
MDA-MB-231 breast = tested on: MDA-MB-231 breast
SN12C renal = tested on: SN12C renal
MALME-3M melanoma = tested on: MALME-3M melanoma
MCF7 breast = tested on: MCF7 breast
U251 CNS = tested on: U251 CNS

Row | SMILES | TGI (OVCAR-4 ovarian) | TGI (786-0 renal) | TGI (SR leukemia) | TGI (UACC-62 melanoma) | TGI (T-47D breast) | TGI (ACHN renal) | TGI (HL-60(TB) leukemia) | TGI (IGROV1 ovarian) | TGI (HOP-92 NSCLC) | TGI (NCI-H522 lung) | TGI (MDA-MB-231 breast) | TGI (SN12C renal) | TGI (MALME-3M melanoma) | TGI (MCF7 breast) | TGI (U251 CNS)
1 | Nc1nc(Cl)cc(NCC2(CO)CC(O)C2)n1 (stereo not given) | > 100 µM | > 100 µM | > 100 µM | > 100 µM | > 100 µM | > 100 µM | > 100 µM | > 100 µM | > 100 µM | > 100 µM | > 100 µM | > 100 µM | > 100 µM | > 100 µM | > 100 µM
2 | CC1(c2nc3ccccc3[nH]2)CCC(CO)C(C)(C)O1 (stereo not given) | > 100 µM | > 100 µM | 33.7 µM | > 100 µM | > 100 µM | > 100 µM | > 100 µM | > 100 µM | > 100 µM | > 100 µM | > 100 µM | > 100 µM | > 100 µM | > 100 µM | > 100 µM
3 | COC(=O)C(CCCCNC(=O)OCc1ccccc1)NC(=O)C(CCC(=O)OCc1ccccc1)NC(=O)OC(C)(C)C (stereo not given) (Boc-Glu(OBn)-Lys(Cbz)-OMe; configuration not given here) | > 100 µM | > 100 µM | > 100 µM | > 100 µM | > 100 µM | > 100 µM | > 100 µM | > 100 µM | > 100 µM | > 100 µM | > 100 µM | > 100 µM | > 100 µM | > 100 µM | > 100 µM
4 | CC1C2CC(CC2=O)C1(C)C (stereo not given) | > 100 µM | > 100 µM | > 100 µM | > 100 µM | > 100 µM | > 100 µM | > 100 µM | > 100 µM | > 100 µM | > 100 µM | > 100 µM | > 100 µM | > 100 µM | > 100 µM | > 100 µM
5 | O=C(CCl)Nc1ccc(-c2nc3ccccc3s2)cc1 | 15.2 µM | 4.62 µM | 5.49 µM | 8.71 µM | 5.59 µM | 13.8 µM | 5.73 µM | 3.3 µM | 6.08 µM | 3.64 µM | 16.8 µM | 4.2 µM | 4.13 µM | 2.39 µM | 3.15 µM
6 | ClCc1nc2cc(Cl)ccc2o1 | 3.45 µM | 3.34 µM | > 37 µM | 23.1 µM | 5.15 µM | 3.33 µM | 21.1 µM | 3.29 µM | 3.87 µM | 3.37 µM | 10.2 µM | 20.9 µM | 27.3 µM | 7.65 µM | 9.13 µM
7 | CCCN=C1S/C(=C/c2ccc(OC)c(OC)c2)C(=O)N1c1ccccc1 | 80.6 µM | 50.2 µM | > 100 µM | > 100 µM | > 100 µM | > 100 µM | > 100 µM | > 100 µM | > 100 µM | > 100 µM | 92.6 µM | > 100 µM | > 100 µM | > 100 µM | 38.7 µM
8 | O=C(O)c1ccccc1/C=C1\Cc2ccc3c(c2C1=O)CCCC3 | > 100 µM | > 100 µM | 61 µM | 46.5 µM | 79.3 µM | > 100 µM | 62.3 µM | > 100 µM | 47.6 µM | 65.9 µM | 62.3 µM | > 100 µM | > 100 µM | > 100 µM | > 100 µM
9 | COC(=O)/C=C1/OC(c2ccccc2)=CC1=O | 31.2 µM | 27.9 µM | > 60.8 µM | 40 µM | 49.9 µM | > 56 µM | 6.14 µM | 33.9 µM | 52.8 µM | 39.3 µM | 31.4 µM | 38.9 µM | 34.9 µM | 25.4 µM | 32.1 µM
10 | Brc1ccc(C2(N3CCCCC3)CCCCC2)s1 | > 100 µM | > 100 µM | 44.3 µM | > 100 µM | 49.5 µM | > 100 µM | 41.8 µM | > 100 µM | 51.2 µM | > 100 µM | > 100 µM | > 100 µM | 94 µM | > 100 µM | > 100 µM
11 | NC(N)=NCCCS(=O)(=O)Nc1ccc(Nc2c3ccccc3nc3cc([N+](=O)[O-])ccc23)cc1 | 48.9 µM | 53.2 µM | > 100 µM | 51.7 µM | 11.4 µM | 63 µM | > 82.4 µM | 79.5 µM | 28.5 µM | 61 µM | 66.5 µM | 60.9 µM | 37.2 µM | 87.7 µM | 29.5 µM
12 | Cc1cc2c(cc1-c1cc3c(cc1C)C(C(C)C)=C(O)C(=O)/C3=C\Nc1cccc3c(N)cccc13)/C(=C/Nc1cccc3c(N)cccc13)C(=O)C(O)=C2C(C)C | > 100 µM | > 100 µM | > 100 µM | > 100 µM | > 100 µM | > 100 µM | > 100 µM | > 100 µM | > 100 µM | > 100 µM | > 100 µM | > 100 µM | > 100 µM | > 100 µM | > 100 µM
13 | CCCCC[C@H]1CC=CC(=O)O1 | 27.3 µM | 13.3 µM | 15.4 µM | 23 µM | 30.9 µM | 43.6 µM | 20.3 µM | 27.3 µM | 53.3 µM | 11.8 µM | 23 µM | 23.8 µM | 33.9 µM | 19.6 µM | 20.8 µM
14 | COc1cc([C@@H]2c3cc4c(cc3[C@@H](N=Cc3ccc(C(=O)O[C@H]5C[C@H]6OC[C@@]6(OC(C)=O)[C@H]6[C@H](OC(=O)c7ccccc7)[C@]7(O)C[C@H](OC(=O)[C@H](OC(=O)c8ccc(C=N[C@@H]9c%10cc%11c(cc%10[C@@H](c%10cc(OC)c(O)c(OC)c%10)[C@H]%10C(=O)OC[C@@H]%109)OCO%11)cc8)[C@@H](NC(=O)c8ccccc8)c8ccccc8)C(C)=C([C@@H](OC(C)=O)C(=O)[C@]56C)C7(C)C)cc3)C3COC(=O)C32)OCO4)cc(C)c1O (stereo not given in full) | > 50 µM | > 50 µM | > 50 µM | > 39.2 µM | > 50 µM | > 50 µM | > 50 µM | > 50 µM | > 50 µM | > 50 µM | > 43.4 µM | > 50 µM | > 50 µM | 48.5 µM | > 31.6 µM
15 | C=CCSC1=N/C(=C\c2ccco2)C(=O)N1CC=C | > 100 µM | > 100 µM | > 100 µM | > 100 µM | > 100 µM | > 100 µM | 60.2 µM | > 100 µM | > 100 µM | > 100 µM | > 100 µM | > 100 µM | > 100 µM | > 100 µM | > 100 µM
16 | COC(=O)C1(Cc2ccccc2C)Cc2ccc(C)cc2C1=O (stereo not given) | > 100 µM | > 100 µM | 33.1 µM | > 100 µM | > 100 µM | > 100 µM | 30.9 µM | > 100 µM | 71.3 µM | 65.9 µM | > 100 µM | 57.4 µM | 72.6 µM | 41 µM | > 100 µM
17 | COc1ccc(C(c2ccccc2)N2C(=O)CCC2C(=O)O)cc1OC (stereo not given) | > 100 µM | > 100 µM | > 100 µM | > 100 µM | > 100 µM | > 100 µM | > 100 µM | > 100 µM | > 100 µM | > 100 µM | > 100 µM | > 100 µM | > 100 µM | > 100 µM | > 100 µM
18 | COc1ccc2c(c1)CC[C@@H]1C2CC[C@]2(C)C(=O)N(C)C(=O)CC12 (stereo not given in full) | > 100 µM | > 100 µM | > 100 µM | > 100 µM | > 100 µM | > 100 µM | > 100 µM | > 100 µM | > 100 µM | > 100 µM | > 100 µM | > 100 µM | > 100 µM | > 100 µM | > 100 µM
19 | CCOC(=O)c1c(C)n(-c2ccc(C)cc2)c2c1cc(O)c1[nH]c3c(c12)CCCC3 | 51.3 µM | 37.1 µM | 11.5 µM | 46.7 µM | > 100 µM | > 100 µM | 51.7 µM | 33.9 µM | 23.6 µM | 27.4 µM | 81.7 µM | > 100 µM | 37 µM | 65.6 µM | 34.8 µM
20 | O=Cc1cc(O)ccc1Br | > 65.7 µM | > 78.3 µM | 17.3 µM | 50.4 µM | > 100 µM | 60 µM | 5.39 µM | > 100 µM | 75.7 µM | > 94.3 µM | > 100 µM | > 100 µM | > 31.6 µM | > 100 µM | 41.3 µM
21 | O=C1c2cc([N+](=O)[O-])cnc2S(=O)(=O)N1c1ccc(Oc2ccccc2)cc1 | > 100 µM | > 100 µM | > 100 µM | > 100 µM | > 100 µM | > 100 µM | > 100 µM | > 100 µM | > 100 µM | > 100 µM | > 100 µM | > 100 µM | > 100 µM | > 100 µM | > 100 µM
22 | Cc1[nH]c2ncn(N)c(=N)c2c1Cc1ccccc1 | > 100 µM | > 100 µM | > 100 µM | > 100 µM | > 100 µM | > 100 µM | > 100 µM | > 100 µM | 87.8 µM | > 100 µM | > 100 µM | > 100 µM | > 100 µM | > 100 µM | > 100 µM
23 | CN(C)c1ccc(C=Nc2ccc(-c3nc4ccccc4o3)cc2)cc1 | > 100 µM | > 100 µM | > 100 µM | > 100 µM | 58.3 µM | > 100 µM | 69.1 µM | > 100 µM | > 100 µM | > 100 µM | > 100 µM | > 100 µM | > 100 µM | > 100 µM | > 100 µM
